Reference: patent US12410171B2, “Tropomyosin receptor kinase (TRK) degradation compounds and methods of use” (Cullgen (Shanghai), Inc., priority 2020, dated 2025)

These compounds were tested against T1, TPM3-TRKA fusion protein (Homo sapiens, UniProt P04629) (assay: TPM3-TRKA fusion protein levels in KM12 cells (Western blot)). Settings: 16 h; TPM3-TRKA degradation in KM12 cells at 10 nM compound, category of percentage degradation; read-out: Degradation (at 10 nM).
T1 construct: The resulted chimeric proteins always retain the kinase domain of TRK proteins; TPM3 (fusion partner, N-terminal part of tropomyosin alpha-3, P06753); endogenous in cells; host or cells: KM12 colon cancer cells; the other entry of the earlier key: TPM3 (P06753, Tropomyosin alpha-3 chain)
T1 sequence (P04629 with tags, fused parts or gaps): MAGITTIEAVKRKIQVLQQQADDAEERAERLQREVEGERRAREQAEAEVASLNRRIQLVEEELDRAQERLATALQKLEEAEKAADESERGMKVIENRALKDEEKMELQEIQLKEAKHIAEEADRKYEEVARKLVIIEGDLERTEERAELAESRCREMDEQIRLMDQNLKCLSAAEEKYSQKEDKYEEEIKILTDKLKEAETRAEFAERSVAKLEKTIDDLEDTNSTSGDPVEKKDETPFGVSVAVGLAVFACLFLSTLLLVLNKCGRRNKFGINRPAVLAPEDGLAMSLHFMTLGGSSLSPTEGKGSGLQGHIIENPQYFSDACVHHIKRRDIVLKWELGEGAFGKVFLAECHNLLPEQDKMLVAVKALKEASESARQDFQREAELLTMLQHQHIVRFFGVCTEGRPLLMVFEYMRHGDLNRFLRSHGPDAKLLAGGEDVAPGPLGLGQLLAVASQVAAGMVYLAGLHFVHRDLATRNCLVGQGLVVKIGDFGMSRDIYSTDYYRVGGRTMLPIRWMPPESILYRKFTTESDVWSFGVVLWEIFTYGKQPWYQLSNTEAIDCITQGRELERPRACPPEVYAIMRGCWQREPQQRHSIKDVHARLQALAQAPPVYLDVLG
Format: cell-based
In short: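 TPM3-TRKA levels were assessed by Western blot with chemiluminescent detection and band densitometry, after SDS-PAGE of BCA-normalized RIPA lysates. Before lysis, KM12 cells received DMSO, compounds or matched control compounds at concentrations including 0.1, 1, 10 and 100 nM and 0.4–30 nM. Exposures lasted 4 h, 8–16 h or 16 h.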
`O=C(CN1CCN(c2ccc(C(=O)Nc3n[nH]c4ccc(Cc5cc(F)cc(F)c5)cc34)c(NC3CCOCC3)c2)CC1)NCCOCCOCCOCCOCCNc1cccc2c1C(=O)N(C1CCC(=O)NC1=O)C2=O` (centres unmarked) [TR-150, N-(5-(3,5-Difluorobenzyl)-1H-indazol-3-yl)-4-(4-(17-((2˜ (2,6-dioxopiperidin-3-yl)-1,3-dioxoisoindolin-4-yl)amino)-2-oxo-6,9,12,15-tetraoxa-3-azaheptadecyl)piperazin-1-yl)-2˜ ((tetrahydro-2H-pyran-4-yl)amino)benzamide] was tested, and the percent degradation of TPM3-TRKA protein at 0.01 µM was greater than 80%. Compound `O=C(CN1CCN(c2ccc(C(=O)Nc3n[nH]c4ccc(Cc5cc(F)cc(F)c5)cc34)c(NC3CCOCC3)c2)CC1)NCCOCCNc1cccc2c1C(=O)N(C1CCC(=O)NC1=O)C2=O` (centres unmarked) [TR-151, N-(5-(3,5-Difluorobenzyl)-1H-indazol-3-yl)-4-(4-(2-((2-(2-((2-(2,6-dioxopiperidin-3-yl)-1,3-dioxoisoindolin-4-yl)amino)ethoxy)ethyl)amino)-2-oxoethyl)piperazin-1-yl)-2-((tetrahydro-2H-pyran-4-yl)amino)benzamide] has a percent degradation of TPM3-TRKA protein at 0.01 µM greater than 80%. With `O=C(CN1CCN(c2ccc(C(=O)Nc3n[nH]c4ccc(Cc5cc(F)cc(F)c5)cc34)c(NC3CCOCC3)c2)CC1)NCCCNc1cccc2c1C(=O)N(C1CCC(=O)NC1=O)C2=O` (centres unmarked) [TR-152, N-(5-(3,5-Difluorobenzyl)-1H-indazol-3-yl)-4-(4-(2-((3-((2-(2,6-dioxopiperidin-3,3-yl)-1,3-dioxoisoindolin-4-yl)amino)propyl)amino)-2-oxocthyl)piperazin-1-yl)-2-((tetrahydro-2H-pyran-4-yl)amino)benzamide] the percent degradation of TPM3-TRKA protein at 0.01 µM was greater than 80%. `O=C(CN1CCN(c2ccc(C(=O)Nc3n[nH]c4ccc(Cc5cc(F)cc(F)c5)cc34)c(NC3CCOCC3)c2)CC1)NCCOCCOCCNc1cccc2c1C(=O)N(C1CCC(=O)NC1=O)C2=O` (centres unmarked) [TR-153, N-(5-(3,5-Difluorobenzyl)-1H-indazol-3-yl)-4-(4-(2-((2-(2-(2-((2-(2,6-dioxopiperidin-3-yl)-1,3-dioxoisoindolin-4-yl)amino)ethoxy)ethoxy)ethyl)amino)-2-oxoethyl)piperazin-1-yl)-2-((tetrahydro-2H-pyran-4-yl)amino)benzamide] gave a percent degradation of TPM3-TRKA protein at 0.01 µM greater than 80%. `O=C(CN1CCN(c2ccc(C(=O)Nc3n[nH]c4ccc(Cc5cc(F)cc(F)c5)cc34)c(NC3CCOCC3)c2)CC1)NCCCCNc1cccc2c1C(=O)N(C1CCC(=O)NC1=O)C2=O` (centres unmarked) [TR-155, N-(5-(3,5-Difluorobenzyl)-1H-indazol-3-yl)-4-(4-(2-((4-((2-(2,6-dioxopiperidin-3-yl)-1,3-dioxoisoindolin-4-yl)amino)butyl)amino)-2-oxoethyl)piperazin-1-yl)-2-((tetrahydro-2/-pyran-4-yl)amino)benzamide] showed a percent degradation of TPM3-TRKA protein at 0.01 µM greater than 80%. `O=C(CN1CCN(c2ccc(C(=O)Nc3n[nH]c4ccc(Cc5cc(F)cc(F)c5)cc34)c(NC3CCOCC3)c2)CC1)NCCCCNc1ccc2c(c1)C(=O)N(C1CCC(=O)NC1=O)C2=O` (centres unmarked) [TR-156, N-(5-(3,5-Difluorobenzyl)-1H-indazol-3-yl)-4-(4-(2-((4-((2-(2,6-dioxopiperidin-3-yl)-1,3-dioxoisoindolin-S-yl)amino)butyl)amino)-2-oxoethyl)piperazin-1-yl)-2-((tetrahydro-2H-pyran-4-yl)amino)benzamide] gave a percent degradation of TPM3-TRKA protein at 0.01 µM greater than 80%. In the case of `O=C(CN1CCN(c2ccc(C(=O)Nc3n[nH]c4ccc(Cc5cc(F)cc(F)c5)cc34)c(NC3CCOCC3)c2)CC1)NCCCCCCCNc1ccc2c(c1)C(=O)N(C1CCC(=O)NC1=O)C2=O` (centres unmarked) [TR-157, N-(5-(3,5-Difluorobenzyl)-1H-indazol-3-yl)-4-(4-(2-((7-((2-(2,6-dioxopiperidin-3-yl)-1,3-dioxoisoindolin-5-yl)amino)heptyl)amino)-2-oxoethyl)piperazin-1-yl)-2-((tetrahydro-2H-pyran-4-yl)amino)benzamide], the percent degradation of TPM3-TRKA protein at 0.01 µM is reported as greater than 80%. `O=C(CN1CCN(c2ccc(C(=O)Nc3n[nH]c4ccc(Cc5cc(F)cc(F)c5)cc34)c(NC3CCOCC3)c2)CC1)NCCOCCOCCOCCOCCNc1ccc2c(c1)C(=O)N(C1CCC(=O)NC1=O)C2=O` (centres unmarked) [TR-160, N-(5-(3,5-Difluorobenzyl)-1H-indazol-3-yl)-4-(4-(17-((2-(2,6-dioxopiperidin-3-yl)-1,3-dioxoisoindolin-S-yl)amino)-2-oxo-6,9,12,15-tetraoxa-3-azaheptadecyl)piperazin-1-yl)-2-((tetrahydro-2H-pyran-4-yl)amino)benzamide] showed a percent degradation of TPM3-TRKA protein at 0.01 µM greater than 80%. `O=C(CN1CCN(c2ccc(C(=O)Nc3n[nH]c4ccc(Cc5cc(F)cc(F)c5)cc34)c(NC3CCOCC3)c2)CC1)NCCOCCNc1ccc2c(c1)C(=O)N(C1CCC(=O)NC1=O)C2=O` (centres unmarked) [TR-161, N-(5-(3,5-Difluorobenzyl)-1H-indazol-3-yl)-4-(4-(2-((2-(2-((2-(2,6-dioxopiperidin-3-yl)-1,3-dioxoisoindolin-5-yl)amino)ethoxy)ethyl)amino)-2-oxoethyl)piperazin-1-yl)-2-((tetrahydro-2H-pyran-4-yl)amino)benzamide] gave a percent degradation of TPM3-TRKA protein at 0.01 µM greater than 80%. In the case of `O=C(CN1CCN(c2ccc(C(=O)Nc3n[nH]c4ccc(Cc5cc(F)cc(F)c5)cc34)c(NC3CCOCC3)c2)CC1)NCCOCCOCCNc1ccc2c(c1)C(=O)N(C1CCC(=O)NC1=O)C2=O` (centres unmarked) [TR-162, N-(5-(3,5-Difluorobenzyl)-1H-indazol-3-yl)-4-(4-(2-((2-(2-(2-((2-(2,6-dioxopiperidin-3-yl)-1,3-dioxoisoindolin-5-yl)amino)ethoxy)ethoxy)ethyl)amino)-2-oxocthyl)piperazin-1-yl)-2-((tetrahydro-2H-pyran-4-yl)amino)benzamide], the percent degradation of TPM3-TRKA protein at 0.01 µM is reported as greater than 80%. Work on `O=C(CN1CCN(c2ccc(C(=O)Nc3n[nH]c4ccc(Cc5cc(F)cc(F)c5)cc34)c(NC3CCOCC3)c2)CC1)NCCOCCOCCOCCNc1ccc2c(c1)C(=O)N(C1CCC(=O)NC1=O)C2=O` (stereo not drawn) [TR-163, N—(S-(3,5-Difluorobenzyl)-1H-indazol-3-yl)-4-(4-(14-((2-(2,6-dioxopiperidin-3-yl)-1,3-dioxoisoindolin-5-yl)amino)-2-oxo-6,9,12-trioxa-3-azatetradecyl)piperazin-1-yl)-2˜ ((tetrahydro-2H-pyran-4-yl)amino)benzamide] yielded a percent degradation of TPM3-TRKA protein at 0.01 µM greater than 80%. In the case of `O=C(CN1CCN(c2ccc(C(=O)Nc3n[nH]c4ccc(Cc5cc(F)cc(F)c5)cc34)c(NC3CCOCC3)c2)CC1)NCCCCCNc1ccc2c(c1)C(=O)N(C1CCC(=O)NC1=O)C2=O` (centres unmarked) [TR-164, N-(5-(3,5-Difluorobenzyl)-1H-indazol-3-yl)-4-(4-(2-((5-((2-(2,6-dioxopiperidin-3-yl)-1,3-dioxoisoindolin-5-yl)amino)pentyl)amino)-2-oxoethyl)piperazin-1-yl)-2-((tetrahydro-2H-pyran-4-yl)amino)benzamide], the percent degradation of TPM3-TRKA protein at 0.01 µM is reported as greater than 80%. `O=C(CN1CCN(c2ccc(C(=O)Nc3n[nH]c4ccc(Cc5cc(F)cc(F)c5)cc34)c(NC3CCOCC3)c2)CC1)NCCNc1ccc2c(c1)C(=O)N(C1CCC(=O)NC1=O)C2=O` (centres unmarked) [TR-165, N-(5-(3,5-Difluorobenzyl)-1H-indazol-3-yl)-4-(4-(2-((2-((2-(2,6-dioxopiperidin-3-yl)-1,3-dioxoisoindolin-5-yl)amino)ethyl)amino)-2-oxoethyl)piperazin-1-yl)-2-((tetrahydro-2H-pyran-4-yl)amino)benzamide] gave a percent degradation of TPM3-TRKA protein at 0.01 µM greater than 80%. For `O=C(CN1CCN(c2ccc(C(=O)Nc3n[nH]c4ccc(Cc5cc(F)cc(F)c5)cc34)c(NC3CCOCC3)c2)CC1)NCCOCCOCCOCCOCCOCCNc1ccc2c(c1)C(=O)N(C1CCC(=O)NC1=O)C2=O` (centres unmarked) [TR-166, N-(5-(3,5-Difluorobenzyl)-1H-indazol-3-yl)-4-(4-(20-((2-(2,6-dioxopiperidin-3-yl)-1,3-dioxoisoindolin-5-yl)amino)-2-oxo-6,9,12,15,18-pentaoxa-3-azaicosyl)piperazin-1-yl)-2-((tetrahydro-28-pyran-4-yl)amino)benzamide], the percent degradation of TPM3-TRKA protein at 0.01 µM was greater than 80%. `O=C(CN1CCN(c2ccc(C(=O)Nc3n[nH]c4ccc(Cc5cc(F)cc(F)c5)cc34)c(NC3CCOCC3)c2)CC1)NCCCNc1ccc2c(c1)C(=O)N(C1CCC(=O)NC1=O)C2=O` (centres unmarked) [TR-167, N-(5-(3,5-Difluorobenzyl)-1H-indazol-3-yl)-4-(4-(2-((3-((2-(2,6-dioxopiperidin-3-yl)-1,3-dioxoisoindolin-5-yl)amino)propyl)amino)-2-oxocthyl)piperazin-1-yl)-2-((tetrahydro-2H-pyran-4-yl)amino)benzamide] showed a percent degradation of TPM3-TRKA protein at 0.01 µM greater than 80%. With `O=C1CCC(N2C(=O)c3ccc(NCCCC(=O)N4CCN(c5cccc(-c6cnc7ccc(N8CCC[C@@H]8c8cccc(F)c8)nn67)n5)CC4)cc3C2=O)C(=O)N1` (stereo partly drawn) [TR-168, 2-(2,6-Dioxopiperidin-3-yl)-5-((4-(4-(6-(6-((R)-2-(3-fluorophenyl)pyrrolidin-1-yl)imidazo[1,2-b]pyridazin-3-yl)pyridin-2-yl)piperazin-1-yl)-4-oxobutyl)amino) isoindoline-1,3-dione] the percent degradation of TPM3-TRKA protein at 0.01 µM was greater than 80%. For `O=C1CCC(N2C(=O)c3ccc(NCCCC(=O)N4CCN(c5ccc(C(=O)Nc6n[nH]c7ccc(Cc8cc(F)cc(F)c8)cc67)c(NC6CCOCC6)c5)CC4)cc3C2=O)C(=O)N1` (centres unmarked) [TR-169, N-(5-(3,5-Difluorobenzyl)-1H-indazol-3-yl)-4-(4-(4-((2-(2,6-dioxopiperidin-3-yl)-1,3-dioxoisoindolin-S-yl)amino)butanoyl)piperazin-1-yl)-2-((tetrahydro-2/-pyran-4-yl)amino)benzamide], the percent degradation of TPM3-TRKA protein at 0.01 µM was greater than 80%.
